From publication PMC4270796, “Ethenoguanines Undergo Glycosylation by Nucleoside 2′-Deoxyribosyltransferases at Non-Natural Sites” (PLoS ONE, 2014)

Target: T1, L. helveticus PDT (Lactobacillus helveticus, UniProt Q8RLY5)
T1 construct: gene ptd; recombinant in E. coli BL21(DE3)pLysS from pETLH4; ammonium sulfate and Sephacryl S-200, no tag mentioned; C-terminal residue Tyr167; active site shared with adjacent monomer; 3 monomers per ASU
Test: X-ray crystallography, […] Å, soaked crystals
Assay type: binding
Settings: soak up to 6 mM; active site, four overlapping orientations; also deoxyribosylated at N1 and N7 with dGuo donor

T1 sequence (Q8RLY5 entry or part of it): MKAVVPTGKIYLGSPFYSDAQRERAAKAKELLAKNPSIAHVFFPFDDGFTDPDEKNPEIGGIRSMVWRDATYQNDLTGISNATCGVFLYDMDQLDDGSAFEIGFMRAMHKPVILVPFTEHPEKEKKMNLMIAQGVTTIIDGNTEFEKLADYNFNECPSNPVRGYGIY

In the case of O=c1[nH]c2nccn2c2nc[nH]c12 [compound 1, 8,9-dihydro-9-oxoimidazo[2,1-b]purine], the “X-ray crystallography, 2.1 Å, soaked crystals” value is reported as “the substrate binds in at least four different, overlapping orientations”.
